This note sets out measurements from ChEMBL document CHEMBL5523725, “Fragment-Based Anti-inflammatory Agent Design and Target Identification: Discovery of AF-45 as an IRAK4 Inhibitor to Treat Ulcerative Colitis and Acute Lung Injury” (J Med Chem, 2024).

For data set [1], the system named is Mus musculus. Nature of the data set: Antiinflammatory activity in male C57BL/6 mouse model of DSS-induced ulcerative colitis assessed as restoration of protein status at 10 mg/kg, po administered for 11 days with subsequent administration of DSS for 8 days by H and E staining based analysis. It is filed as functional, organism-based. The conditions noted are these: time 11.0 day.

For data set [2], the system named is Mus musculus. Nature of the data set: Anti-colitis activity in male C57BL/6 mouse model of DSS-induced ulcerative colitis assessed as colon length at 10 mg/kg, po administered for 11 days with subsequent administration of DSS for 8 days (reference value: 5.2 cm). It is filed as functional. The conditions noted are these: time 11 day.
For data set [3], the system named is Mus musculus. Nature of the data set: Antiinflammatory activity in male C57BL/6 mouse model of DSS-induced ulcerative colitis assessed as reduction in TNF-alpha level in serum at 10 mg/kg, po administered for 11 days with subsequent administration of DSS for 8 days by ELISA. It is filed as functional, organism-based. The following applies: time 11.0 day.
In data set [4] the test system is Mus musculus. The experiment in a line: Antiinflammatory activity in male C57BL/6 mouse model of DSS-induced ulcerative colitis assessed as reduction in spleen to body weight ratio at 10 mg/kg, po administered for 11 days with subsequent administration of DSS for 8 days. It is filed as functional, organism-based. The following applies: time 11.0 day.
A short description of data set [5]: Half life in po dosed rat. It is filed as ADME, organism-based. The following applies: in vivo.
Data set [6] concerns Mus musculus. Nature of the data set: Antiinflammatory activity in male C57BL/6 mouse model of DSS-induced ulcerative colitis assessed as reduction in colonic structure destruction at 10 mg/kg, po administered for 11 days with subsequent administration of DSS for 8 days by H and E staining based analysis. It is filed as functional, organism-based. The following applies: time 11.0 day.

The subject of data set [7] is RAW264.7. Nature of the data set: Inhibition of NFkappaB/MAPK signaling pathway in mouse RAW264.7 cells assessed as reduction in LPS-induced p65 phosphorylation at 50 uM by Western blot analysis. It is filed as cell-based. (In general: A western blot detects proteins with antibodies after separation by electrophoresis.)
The subject of data set [8] is Mus musculus. Nature of the data set: Antiinflammatory activity in male C57BL/6 mouse model of DSS-induced ulcerative colitis assessed as reduction in macrophage infiltration in spleen at 10 mg/kg, po administered for 11 days with subsequent administration of DSS for 8 days by F4/80 labeling based immunohistochemistry analysis. The following applies: time 11.0 day. The class given is functional, organism-based.

The test system of data set [9] is Mus musculus. Nature of the data set: Antiinflammatory activity in male C57BL/6 mouse model of DSS-induced ulcerative colitis assessed as reduction in macrophage infiltration in colon at 10 mg/kg, po administered for 11 days with subsequent administration of DSS for 8 days by F4/80 labeling based immunohistochemistry analysis. It is filed as functional, organism-based. The conditions noted are these: time 11.0 day.

Data set [10] has as its system RAW264.7. The experiment in a line: Inhibition of NFkappaB/MAPK signaling pathway in mouse RAW264.7 cells assessed as reduction in LPS-induced IkappaBalpha degradation at 50 uM by Western blot analysis. It is filed as cell-based.
Data set [11] has as its system RAW264.7. The experiment in a line: Inhibition of NFkappaB/MAPK signaling pathway in mouse RAW264.7 cells assessed as reduction in LPS-induced JNK phosphorylation at 50 uM by Western blot analysis. It is filed as cell-based.
Data set [12] has as its system Mus musculus. The experiment in a line: In vivo binding affinity to IRAK4 in DSS-induced ulcerative colitis C57BL/6 mouse colon assessed as thermal stabilization at 10 mg/kg, po administered for 11 days with subsequent administration of DSS for 8 days by CETSA. The following applies: time 11.0 day. It is filed as functional, organism-based.
Data set [13] has as its target T1, Interleukin-1 receptor-associated kinase 4 (Mus musculus) (UniProt Q8R4K2).
T1 sequence (whole entry): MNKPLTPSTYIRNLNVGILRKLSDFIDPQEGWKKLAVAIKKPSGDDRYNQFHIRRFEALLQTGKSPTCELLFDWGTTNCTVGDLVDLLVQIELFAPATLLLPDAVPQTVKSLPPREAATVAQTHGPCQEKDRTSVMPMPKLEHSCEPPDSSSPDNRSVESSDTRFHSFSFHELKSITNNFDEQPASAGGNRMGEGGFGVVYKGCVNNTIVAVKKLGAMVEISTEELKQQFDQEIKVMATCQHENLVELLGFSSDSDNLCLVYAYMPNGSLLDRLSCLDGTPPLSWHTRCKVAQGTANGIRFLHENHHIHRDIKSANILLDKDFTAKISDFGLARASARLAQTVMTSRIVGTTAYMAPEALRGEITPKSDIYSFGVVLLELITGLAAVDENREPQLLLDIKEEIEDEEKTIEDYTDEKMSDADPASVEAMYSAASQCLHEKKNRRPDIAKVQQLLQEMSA
Nature of the data set: Thermal stabilization of IRAK4 in mouse RAW264.7 cells at 10 uM measured after 4 hrs by CETSA. The class given is cell-based.

Data set [14] concerns RAW264.7. Nature of the data set: Inhibition of NFkappaB/MAPK signaling pathway in mouse RAW264.7 cells assessed as reduction in LPS-induced p38 phosphorylation at 50 uM by Western blot analysis. The class given is cell-based.
For data set [15], the system named is Mus musculus. Nature of the data set: Antiinflammatory activity in male C57BL/6 mouse model of DSS-induced ulcerative colitis assessed as preservation of goblet cells at 10 mg/kg, po administered for 11 days with subsequent administration of DSS for 8 days by H and E staining based analysis. The class given is functional, organism-based. The conditions noted are these: time 11.0 day.

The test system of data set [16] is Mus musculus. The experiment in a line: Antiinflammatory activity in male C57BL/6 mouse model of DSS-induced ulcerative colitis assessed as reduction in IL-6 level in serum at 10 mg/kg, po administered for 11 days with subsequent administration of DSS for 8 days by ELISA. It is filed as functional, organism-based. The following applies: time 11.0 day.

SMILES strings stand for the structures. Calls of active or inactive are those of the source. The rule behind the calls is not given here.

The term half-life denotes the time in which the quantity being followed falls by half. The low end stands for fast loss, the high end for slow loss. On to `CC[C@@H]1[C@H](F)C(=O)N[C@@H]1COc1nccc2cc(C(N)=O)c(OC)cc12` [ZIMLOVISERTIB], for which the outcome in the data set with Mus musculus [1], in the data set with Mus musculus [3], in the data set with Mus musculus [4], in the data set with Mus musculus [6], in the data set on Mus musculus [8] and with Mus musculus [9] was Active. The outcome (in data set [13]; in the data set with Mus musculus [15]; with Mus musculus [16]) was Active. In addition, the Activity in the data set with Mus musculus [2] is 5.5 cm. Moreover, the half-life in data set [5] is 2.8 h. The inhibition entry in the data set on RAW264.7 [7], in the data set with RAW264.7 [10], with RAW264.7 [11] and in the data set on RAW264.7 [14] was “Active” throughout. In the data set on Mus musculus [12], the result was inactive.
